Laboratory results as given in paper PMC10426190 (Breast Cancer Research : BCR, 2023).

Tested on: E2-induced (ER target) genes in MCF7
Assay: Gene expression analysis by RNA-sequencing in MCF7 with E2 stimulation
Assay type: cell-based, human
Conditions: 24 h
Method: MCF7 were cultured in hormone deprivation media (with 10% charcoal-stripped FBS) for at least 3 days before assay. Trypsinized cells were seeded in a 12-well plate, stimulated with 1 nM β-estradiol (E2), and treated with/without 1 μM compounds for 24 h. Total RNA was extracted using the TRIzol reagent according to the manufacturer’s protocol. RNA purity and quantification were evaluated using the NanoDrop 2000 spectrophotometer (Thermo Scientific, USA). RNA integrity was assessed using the Agilent 2100 Bioanalyzer (Agilent Technologies, Santa Clara, CA, USA). Then the libraries were constructed using TruSeq Stranded mRNA LT Sample Prep Kit (Illumina, San Diego, CA, USA) according to the manufacturer’s instructions. The transcriptome sequencing and analysis were conducted by OE Biotech Co., Ltd. (Shanghai, China). The libraries were sequenced on an Illumina HiSeq X Ten platform and 150 bp paired-end reads were generated. […] Raw data (raw reads) of FASTq format were firstly processed using Trimmomatic and the low-quality reads were removed to obtain the clean reads. […] The clean reads were mapped to the human genome (GRCh38) using HISAT2 [27]. FPKM [28] of each gene was calculated using Cufflinks, and the read counts of each gene were obtained by HTSeqcount. Differential expression analysis was performed using the DESeq (2012) R package.
MCF7 with hormone-deprived pre-treatment were administrated ER ligands or not present with 1 nM E2 stimulation for 24 h incubation in a 12-well plate. Total mRNA was isolated from treated cells and sequenced on an Illumina HiSeq X Ten platform. FPKM of each gene was calculated using Cufflinks and Differential expression genes analysis by using the DESeq (2012) R package. […] T47D EFM-19 and HCC1500 cells were grown in RPMI media supplemented with 10% charcoal-stripped FBS for 14 days and then treated with ER antagonist (1 μM) or DMSO in the presence E2 (1nM) stimulation for 24 h before RNA isolation and gene expression analysis as described in methods. […] The uteruses were harvested 24 h after the final doses and stained by toluidine blue. Endometrial height was assessed from the basement membrane to the luminal border (scale bar in green lines: 200 μm), Arrows indicate the uterine epithelium (e).

In the case of `CC/C(=C(\c1ccc(O)cc1)c1ccc(OCCN(C)C)cc1)c1ccccc1` [4-OH-tamoxifen], the “percentage of E2-induced genes suppressed, Relative to 1 nM E2 Down%” value (MCF7, 1 nM E2 + 1 μM compound) is reported as 59.1%, the “percentage of genes upregulated, Relative to 1 nM E2 Up%” value (MCF7, 1 nM E2 + 1 μM compound, foldchange > twofold) is reported as 5.8% and the ACTG2 expression (MCF7, 1 nM E2 ± 1 μM compound) is reported as 2.33 FPKM. It also gave an ADCY1 expression (MCF7, 1 nM E2 ± 1 μM compound) of 19.17 FPKM, an AGR3 expression (MCF7, 1 nM E2 ± 1 μM compound) of 25.86 FPKM and an AMZ1 expression (MCF7, 1 nM E2 ± 1 μM compound) of 3.21 FPKM. For the same molecule, the ANLN expression (MCF7, 1 nM E2 ± 1 μM compound) was 22.77 FPKM, the ARHGAP36 expression (MCF7, 1 nM E2 ± 1 μM compound) was 1.42 FPKM and the ASCL1 expression (MCF7, 1 nM E2 ± 1 μM compound) was 2.50 FPKM. The ASF1B expression (MCF7, 1 nM E2 ± 1 μM compound) was 33.57 FPKM, the ASMTL-2 expression (MCF7, 1 nM E2 ± 1 μM compound) was 3.33 FPKM and the ATAD2 expression (MCF7, 1 nM E2 ± 1 μM compound) was 29.15 FPKM. The ATRNL1 expression (MCF7, 1 nM E2 ± 1 μM compound) was 0.29 FPKM, the AURKB expression (MCF7, 1 nM E2 ± 1 μM compound) was 18.53 FPKM and the BIRC5 expression (MCF7, 1 nM E2 ± 1 μM compound) was 26.74 FPKM. The BLM expression (MCF7, 1 nM E2 ± 1 μM compound) was 3.14 FPKM, the BMPER expression (MCF7, 1 nM E2 ± 1 μM compound) was 0.18 FPKM and the BRCA1 expression (MCF7, 1 nM E2 ± 1 μM compound) was 3.58 FPKM. It also gave a BRCA2 expression (MCF7, 1 nM E2 ± 1 μM compound) of 2.51 FPKM, a BRIP1 expression (MCF7, 1 nM E2 ± 1 μM compound) of 22.65 FPKM and a BUB1B expression (MCF7, 1 nM E2 ± 1 μM compound) of 9.15 FPKM. It also gave a C1orf226 expression (MCF7, 1 nM E2 ± 1 μM compound) of 5.19 FPKM, a C5AR2 expression (MCF7, 1 nM E2 ± 1 μM compound) of 2.33 FPKM and a CA2 expression (MCF7, 1 nM E2 ± 1 μM compound) of 157.09 FPKM. It also gave a CA12 expression (MCF7, 1 nM E2 ± 1 μM compound) of 46.02 FPKM, a CALCR expression (MCF7, 1 nM E2 ± 1 μM compound) of 4.03 FPKM and a CAV1 expression (MCF7, 1 nM E2 ± 1 μM compound) of 5.56 FPKM. The CCN5 expression (MCF7, 1 nM E2 ± 1 μM compound) was 29.67 FPKM, the CCNA2 expression (MCF7, 1 nM E2 ± 1 μM compound) was 17.16 FPKM and the CCNE2 expression (MCF7, 1 nM E2 ± 1 μM compound) was 7.22 FPKM. For the same molecule, the CD99-2 expression (MCF7, 1 nM E2 ± 1 μM compound) was 0.97 FPKM, the CDC6 expression (MCF7, 1 nM E2 ± 1 μM compound) was 6.08 FPKM and the CDC25A expression (MCF7, 1 nM E2 ± 1 μM compound) was 2.63 FPKM. It also gave a CDC45 expression (MCF7, 1 nM E2 ± 1 μM compound) of 5.79 FPKM, a CDCA3 expression (MCF7, 1 nM E2 ± 1 μM compound) of 6.21 FPKM and a CDCA4 expression (MCF7, 1 nM E2 ± 1 μM compound) of 15.28 FPKM. It also gave a CDCA5 expression (MCF7, 1 nM E2 ± 1 μM compound) of 13.04 FPKM, a CDCA7 expression (MCF7, 1 nM E2 ± 1 μM compound) of 2.77 FPKM and a CDH26 expression (MCF7, 1 nM E2 ± 1 μM compound) of 0.69 FPKM. It also gave a CDK1 expression (MCF7, 1 nM E2 ± 1 μM compound) of 15.34 FPKM, a CDT1 expression (MCF7, 1 nM E2 ± 1 μM compound) of 21.06 FPKM and a CENPI expression (MCF7, 1 nM E2 ± 1 μM compound) of 3.21 FPKM. For the same molecule, the CENPU expression (MCF7, 1 nM E2 ± 1 μM compound) was 5.41 FPKM, the CHAF1B expression (MCF7, 1 nM E2 ± 1 μM compound) was 2.31 FPKM and the CHEK1 expression (MCF7, 1 nM E2 ± 1 μM compound) was 2.63 FPKM. For the same molecule, the CKS1B expression (MCF7, 1 nM E2 ± 1 μM compound) was 49.15 FPKM, the CLSPN expression (MCF7, 1 nM E2 ± 1 μM compound) was 1.96 FPKM and the COL12A1 expression (MCF7, 1 nM E2 ± 1 μM compound) was 3.75 FPKM. For the same molecule, the CXCL12 expression (MCF7, 1 nM E2 ± 1 μM compound) was 3.86 FPKM, the DDIAS expression (MCF7, 1 nM E2 ± 1 μM compound) was 4.48 FPKM and the DHRSX-2 expression (MCF7, 1 nM E2 ± 1 μM compound) was 1.54 FPKM. It also gave a DKK1 expression (MCF7, 1 nM E2 ± 1 μM compound) of 41.67 FPKM, a DNA2 expression (MCF7, 1 nM E2 ± 1 μM compound) of 3.39 FPKM and a DPYSL5 expression (MCF7, 1 nM E2 ± 1 μM compound) of 0.63 FPKM. It also gave a DSCC1 expression (MCF7, 1 nM E2 ± 1 μM compound) of 4.49 FPKM, a DTL expression (MCF7, 1 nM E2 ± 1 μM compound) of 2.21 FPKM and an E2F1 expression (MCF7, 1 nM E2 ± 1 μM compound) of 8.56 FPKM. The E2F2 expression (MCF7, 1 nM E2 ± 1 μM compound) was 1.96 FPKM, the E2F7 expression (MCF7, 1 nM E2 ± 1 μM compound) was 3.12 FPKM and the E2F8 expression (MCF7, 1 nM E2 ± 1 μM compound) was 4.23 FPKM. For the same molecule, the ELOVL2 expression (MCF7, 1 nM E2 ± 1 μM compound) was 7.72 FPKM, the EME1 expression (MCF7, 1 nM E2 ± 1 μM compound) was 4.92 FPKM and the ERCC6L expression (MCF7, 1 nM E2 ± 1 μM compound) was 1.82 FPKM. For the same molecule, the ESCO2 expression (MCF7, 1 nM E2 ± 1 μM compound) was 2.98 FPKM, the ESPL1 expression (MCF7, 1 nM E2 ± 1 μM compound) was 7.94 FPKM and the EXO1 expression (MCF7, 1 nM E2 ± 1 μM compound) was 3.27 FPKM. For the same molecule, the FAM20A expression (MCF7, 1 nM E2 ± 1 μM compound) was 2.46 FPKM, the FAM111B expression (MCF7, 1 nM E2 ± 1 μM compound) was 4.32 FPKM and the FANCA expression (MCF7, 1 nM E2 ± 1 μM compound) was 10.70 FPKM. It also gave an FANCD2 expression (MCF7, 1 nM E2 ± 1 μM compound) of 6.23 FPKM, an FANCI expression (MCF7, 1 nM E2 ± 1 μM compound) of 20.35 FPKM and an FEN1 expression (MCF7, 1 nM E2 ± 1 μM compound) of 31.76 FPKM. For the same molecule, the FIGNL1 expression (MCF7, 1 nM E2 ± 1 μM compound) was 2.46 FPKM, the FKBP4 expression (MCF7, 1 nM E2 ± 1 μM compound) was 79.90 FPKM and the GATA4 expression (MCF7, 1 nM E2 ± 1 μM compound) was 0.08 FPKM. For the same molecule, the GFRA1 expression (MCF7, 1 nM E2 ± 1 μM compound) was 84.37 FPKM, the GINS1 expression (MCF7, 1 nM E2 ± 1 μM compound) was 11.19 FPKM and the GINS2 expression (MCF7, 1 nM E2 ± 1 μM compound) was 12.84 FPKM. For the same molecule, the GJA1 expression (MCF7, 1 nM E2 ± 1 μM compound) was 0.31 FPKM, the GLA expression (MCF7, 1 nM E2 ± 1 μM compound) was 41.63 FPKM and the GP1BB expression (MCF7, 1 nM E2 ± 1 μM compound) was 0.99 FPKM. The GPR68 expression (MCF7, 1 nM E2 ± 1 μM compound) was 0.38 FPKM, the GPRIN1 expression (MCF7, 1 nM E2 ± 1 μM compound) was 4.22 FPKM and the GREB1 expression (MCF7, 1 nM E2 ± 1 μM compound) was 4.76 FPKM. It also gave an H2AX expression (MCF7, 1 nM E2 ± 1 μM compound) of 94.16 FPKM, an HBB expression (MCF7, 1 nM E2 ± 1 μM compound) of 2.54 FPKM and an HELLS expression (MCF7, 1 nM E2 ± 1 μM compound) of 3.37 FPKM. The HEY2 expression (MCF7, 1 nM E2 ± 1 μM compound) was 1.93 FPKM, the HMGB2 expression (MCF7, 1 nM E2 ± 1 μM compound) was 125.20 FPKM and the IGFBP4 expression (MCF7, 1 nM E2 ± 1 μM compound) was 56.87 FPKM. The IGSF1 expression (MCF7, 1 nM E2 ± 1 μM compound) was 3.37 FPKM, the ITGA2B expression (MCF7, 1 nM E2 ± 1 μM compound) was 0.44 FPKM and the KIF11 expression (MCF7, 1 nM E2 ± 1 μM compound) was 13.08 FPKM.
